# Measured values taken from article PMC6803055 (Journal of pharmacological and toxicological methods, 2019).
# Where two headings read alike, the source gives them in different places.
# Legend:
# rats [1] = experiment: original GLP respiratory study using head-out plethysmography; format: in vivo, rat; details: original head-out study, 200, 500, 750 mg/kg p.o.
# PDE5 = PDE5 (Homo sapiens, UniProt O76074); experiment: in vitro enzyme assay; format: biochemical; details: 100 μM (36 μg/mL) DSM421
# PDE6 = experiment: in vitro enzyme assay; format: biochemical; details: 100 μM (36 μg/mL) DSM421
# dogs = experiment: cardiovascular and respiratory assessment in telemetry-instrumented dogs; format: in vivo, dog
# Male Sprague Dawley rats [2] = experiment: stress-related hormones after plethysmography testing; format: in vivo, rat; details: approximately 5 hours post-dosing, 200, 500, 750 mg/kg p.o., whole-body and head-out testing
# Male Sprague Dawley rats [3] = experiment: respiratory function, whole-body plethysmography; format: in vivo, rat; details: for increase in tidal volume: throughout 5 hours post-dosing, not significant
# pharmacokinetics in rats = format: in vivo; details: rat; for plasma Cmax (mean ± S.E.M.) / Tmax (mean ± S.E.M.): n=4
# adenosine A3 receptor = target: T1, adenosine A3 receptor (Homo sapiens, UniProt P0DMS8); experiment: in vitro binding assay
# T1 sequence (P0DMS8 1-318): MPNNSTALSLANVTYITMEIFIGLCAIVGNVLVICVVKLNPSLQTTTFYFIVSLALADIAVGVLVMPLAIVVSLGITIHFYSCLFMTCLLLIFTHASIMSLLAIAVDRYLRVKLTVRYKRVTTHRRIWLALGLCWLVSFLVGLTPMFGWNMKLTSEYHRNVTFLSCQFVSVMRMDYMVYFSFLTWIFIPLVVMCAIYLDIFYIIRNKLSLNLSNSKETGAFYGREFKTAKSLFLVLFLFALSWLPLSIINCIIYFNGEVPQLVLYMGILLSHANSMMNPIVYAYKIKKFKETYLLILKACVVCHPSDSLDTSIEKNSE
# Male Sprague Dawley rats [4] = details: rat, in vivo, po
# [5] = estimated plasma maximum concentrations in dogs; format: in vivo, dog
# rats [6] = experiment: Irwin test; format: in vivo, rat; details: oral doses of 200, 500 and 750 mg/kg
# [7] = target: transient receptor potential cation channel subfamily V member 1 (TRPV1) (Homo sapiens, UniProt Q8NER1); experiment: in vitro functional assays for agonist and antagonist effects; format: biochemical
# [8] = whole-body, 200 and 500 mg/kg p.o., peak at 5 hours post-dosing
# transient receptor potential cation channel subfamily V member 1 (TRPV1), sequence (Q8NER1 whole entry, species assumed): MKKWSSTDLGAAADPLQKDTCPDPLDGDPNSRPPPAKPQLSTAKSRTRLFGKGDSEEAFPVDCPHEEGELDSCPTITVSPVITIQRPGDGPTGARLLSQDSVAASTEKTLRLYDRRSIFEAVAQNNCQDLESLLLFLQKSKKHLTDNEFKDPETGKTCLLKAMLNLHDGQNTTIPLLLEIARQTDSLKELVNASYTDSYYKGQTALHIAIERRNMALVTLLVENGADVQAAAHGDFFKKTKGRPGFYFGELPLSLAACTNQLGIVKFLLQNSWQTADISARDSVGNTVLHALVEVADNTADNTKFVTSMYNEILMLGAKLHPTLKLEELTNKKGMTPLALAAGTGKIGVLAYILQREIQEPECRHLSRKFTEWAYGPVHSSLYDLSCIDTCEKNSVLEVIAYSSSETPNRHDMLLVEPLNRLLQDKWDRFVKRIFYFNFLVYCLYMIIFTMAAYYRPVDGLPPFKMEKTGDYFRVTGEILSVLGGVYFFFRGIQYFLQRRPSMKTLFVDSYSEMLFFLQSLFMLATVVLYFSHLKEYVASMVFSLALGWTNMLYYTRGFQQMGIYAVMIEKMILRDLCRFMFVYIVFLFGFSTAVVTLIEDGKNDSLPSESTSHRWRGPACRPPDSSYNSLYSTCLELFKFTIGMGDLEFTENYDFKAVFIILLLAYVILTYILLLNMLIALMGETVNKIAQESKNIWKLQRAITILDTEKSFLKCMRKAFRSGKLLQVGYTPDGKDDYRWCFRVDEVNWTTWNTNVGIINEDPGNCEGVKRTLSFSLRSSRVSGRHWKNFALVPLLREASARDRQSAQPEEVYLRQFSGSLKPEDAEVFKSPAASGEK
smiles,measurement,setting,value
"Cc1cc(Nc2ccc(C(F)(F)F)nc2)n2nc(C(C)(F)F)nc2n1 [DSM421, 2-(1,1-difluoroethyl)-5-methyl-N-[6-trifluromethyl-3-pyridyl]-[1,2,4]triazolo[1,5-a]pyrimidin-7-amine]",time after administration of death or euthanasia in extremis,rats [1],3 to 5 h
same,inhibition,PDE5,59%
same,inhibition,PDE6,72%
same,clinical observation,dogs; 100 mg/kg p.o.,emesis
same,increase in minute volume,dogs; 100 mg/kg p.o.,4- to 5 fold
same,increase in respiratory rate,dogs; 100 mg/kg p.o.,4- to 5 fold
same,"cardiovascular function (heart rate, blood pressure, and ECG)",dogs; 30 and 100 mg/kg p.o.,no effects
same,tidal volume,dogs; 30 and 100 mg/kg p.o.,no effects
same,no-observed-effect level (NOEL),dogs; p.o.,30 mg/kg
same,"ACTH plasma level, effect of dose",Male Sprague Dawley rats [2],no overall effect for dose
same,"aldosterone serum level, effect of dose",Male Sprague Dawley rats [2],no overall effect for dose
same,"corticosterone serum level, effect of dose",Male Sprague Dawley rats [2],overall effect for dose
same,clinical signs,"Male Sprague Dawley rats [3]; whole-body chambers, 200, 500, 750 mg/kg p.o., 5-hour post-dosing period",no DSM421-related clinical signs
same,increase in tidal volume,"Male Sprague Dawley rats [3]; whole-body, 200 mg/kg p.o.",approximately 5%
same,increase in tidal volume,"Male Sprague Dawley rats [3]; whole-body, 500 mg/kg p.o.",~6%
same,mean minute volume increase,Male Sprague Dawley rats [3]; [8],approximately 28%
same,mean respiratory rate increase compared to vehicle control,Male Sprague Dawley rats [3]; [8],22–23%
same,plasma Cmax (mean ± S.E.M.),pharmacokinetics in rats; 200 mg/kg p.o.,49 µg/mL
same,Tmax (mean ± S.E.M.),pharmacokinetics in rats; 500 mg/kg p.o.,18 ± 3.5 h
same,plasma Cmax (mean ± S.E.M.),pharmacokinetics in rats; 500 mg/kg p.o.,73 µg/mL
same,plasma level by 6 days after dosing relative to LLOQ (0.005 μg/mL),pharmacokinetics in rats; 750 mg/kg p.o. (high dose),only slightly greater than that
same,Tmax (mean ± S.E.M.),pharmacokinetics in rats; 750 mg/kg p.o.,27 ± 7.5 h
same,plasma Cmax (mean ± S.E.M.),pharmacokinetics in rats; 750 mg/kg p.o.,97 µg/mL
same,inhibition of control specific binding,adenosine A3 receptor; 10 μM DSM421,40%
same,inhibition of control specific binding,adenosine A3 receptor; 100 μM (36 μg/mL) DSM421,91%
same,changes in respiratory rate,Male Sprague Dawley rats [4]; 200 mg/kg,no changes in respiratory rate
same,clinical signs,Male Sprague Dawley rats [4]; 200 mg/kg,no DSM421-related clinical signs
same,mean minute volume increase above the control group,Male Sprague Dawley rats [4]; 200 mg/kg,approximately 17%
same,"animals with hypoactivity, salivation, dyspnea and/or increased body temperature",Male Sprague Dawley rats [4]; 500 mg/kg,2 of the eight animals tested
same,increase in respiratory rate above controls,Male Sprague Dawley rats [4]; 500 mg/kg,5–17%
same,mean minute volume increase above the control group,Male Sprague Dawley rats [4]; 500 mg/kg,~48%
same,increase in respiratory rate above controls (peak),Male Sprague Dawley rats [4]; 750 mg/kg,41–47%
same,increase in tidal volume above controls (peak),Male Sprague Dawley rats [4]; 750 mg/kg,46–57%
same,mean minute volume increase above controls (peak),Male Sprague Dawley rats [4]; 750 mg/kg,141%
same,estimated maximum concentration (Cmax) in plasma,[5]; 30 mg/kg p.o.,29 µg/mL
same,estimated maximum concentration (Cmax) in plasma,[5]; 100 mg/kg p.o.,69 µg/mL
same,Irwin test effects,rats [6],no effects were observed
same,agonist effect (percent of control agonist response),"[7]; 100 μM DSM421, agonist mode",26%
same,antagonist effect,"[7]; 100 μM DSM421, antagonist mode",no effect
